Measurements from PubChem BioAssay AID330 (DTP/NCI, 2004).
Values joined by “and” are separate entries in the source; they are usually repeats but may differ in a detail not shown here. Equal values may be shown once. Inconclusive results and toxic doses are left out.

Tested on: P388 leukemia ip, CD2F1 mice, survival T/C
Assay: NCI In Vivo Anticancer Drug Screen. Data for tumor model P388 Leukemia (intraperitoneal) in CD2F1 (CDF1) mice
Conditions: endpoint: median survival time, higher = longer survival
How it was run: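 Mice carrying the transplanted tumor received test compound or vehicle. Survival was recorded in each group, and the value is the treated-group measurement divided by that of the vehicle-treated control group.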

Compound: CC(=O)O[C@H]1C(=O)[C@@]2(C)[C@H]([C@H](OC(=O)c3ccccc3)[C@]3(O)C[C@H](OC(=O)[C@H](O)[C@@H](NC(=O)c4ccccc4)c4ccccc4)C(C)=C1C3(C)C)[C@]1(OC(C)=O)CO[C@@H]1C[C@@H]2O
- T/C (dose: 1.1 mg/kg/injection, schedule: Q01DX005 (ip), vehicle: other): 118 % of control
- T/C (dose: 1.1 mg/kg/injection, schedule: Q01DX005 (iv), vehicle: other): 98 % of control
- T/C (dose: 1.1 mg/kg/injection, schedule: Q01DX009 (oral), vehicle: other): 106 % of control
- T/C (dose: 1.25 mg/kg/injection, schedule: Q01DX009 (ip), vehicle: Klucel (hydroxypropylcellulose) (HPC)): 106 % of control
- T/C (dose: 1.25 mg/kg/injection, schedule: Q01DX009 (sc), vehicle: Klucel (hydroxypropylcellulose) (HPC)): 106 % of control
- T/C (dose: 1.7 mg/kg/injection, schedule: Q01DX005 (ip), vehicle: other): 115 % of control
- T/C (dose: 1.7 mg/kg/injection, schedule: Q01DX005 (iv), vehicle: other): 106 % of control
- T/C (dose: 1.7 mg/kg/injection, schedule: Q03HX024 (ip), vehicle: other): 160 % of control
- T/C (dose: 2.5 mg/kg/injection, schedule: Q01DX005 (ip), vehicle: Klucel (hydroxypropylcellulose) (HPC)): 124 % of control
- T/C (dose: 2.5 mg/kg/injection, schedule: Q01DX009 (ip), vehicle: Klucel (hydroxypropylcellulose) (HPC)): 112 % of control
- T/C (dose: 2.5 mg/kg/injection, schedule: Q01DX009 (oral), vehicle: Klucel (hydroxypropylcellulose) (HPC)): 100 % of control
- T/C (dose: 2.5 mg/kg/injection, schedule: Q01DX009 (sc), vehicle: Klucel (hydroxypropylcellulose) (HPC)): 99 % of control
- T/C (dose: 2.6 mg/kg/injection, schedule: Q01DX001 (ip), vehicle: other): 106 % of control
- T/C (dose: 2.6 mg/kg/injection, schedule: Q01DX001 (iv), vehicle: other): 94 % of control
- T/C (dose: 2.6 mg/kg/injection, schedule: Q01DX005 (ip), vehicle: other): 115 % of control
- T/C (dose: 2.6 mg/kg/injection, schedule: Q01DX005 (iv), vehicle: other): 97 % of control
- T/C (dose: 2.6 mg/kg/injection, schedule: Q03HX024 (ip), vehicle: other): 153 % of control
- T/C (dose: 2.6 mg/kg/injection, schedule: Q04DX003 (iv), vehicle: other): 87 % of control
- T/C (dose: 3.6 mg/kg/injection, schedule: Q01DX005 (ip), vehicle: Klucel (hydroxypropylcellulose) (HPC)): 161 % of control
- T/C (dose: 4.0 mg/kg/injection, schedule: Q01DX001 (iv), vehicle: other): 95 % of control
- T/C (dose: 4.0 mg/kg/injection, schedule: Q01DX005 (ip), vehicle: other): 120 % of control
- T/C (dose: 4.0 mg/kg/injection, schedule: Q01DX009 (oral), vehicle: other): 96 % of control
- T/C (dose: 4.0 mg/kg/injection, schedule: Q03HX008 (ip), vehicle: other): 156 % of control
- T/C (dose: 4.0 mg/kg/injection, schedule: Q04DX003 (ip), vehicle: other): 120 % of control
- T/C (dose: 4.0 mg/kg/injection, schedule: Q04DX003 (iv), vehicle: other): 87 % of control
- T/C (dose: 5.0 mg/kg/injection, schedule: Q01DX009 (ip), vehicle: Klucel (hydroxypropylcellulose) (HPC)): 116 % of control
- T/C (dose: 5.0 mg/kg/injection, schedule: Q01DX009 (oral), vehicle: Klucel (hydroxypropylcellulose) (HPC)): 99 % of control
- T/C (dose: 5.0 mg/kg/injection, schedule: Q01DX009 (sc), vehicle: Klucel (hydroxypropylcellulose) (HPC)): 98 % of control
- T/C (dose: 6.0 mg/kg/injection, schedule: Q01DX001 (ip), vehicle: other): 106 % of control
- T/C (dose: 6.0 mg/kg/injection, schedule: Q01DX005 (iv), vehicle: other): 112 % of control
- T/C (dose: 6.0 mg/kg/injection, schedule: Q01DX009 (oral), vehicle: other): 99 % of control
- T/C (dose: 6.0 mg/kg/injection, schedule: Q03HX008 (ip), vehicle: other): 178 % of control
- T/C (dose: 6.0 mg/kg/injection, schedule: Q04DX003 (iv), vehicle: other): 89 % of control
- T/C (dose: 9.0 mg/kg/injection, schedule: Q01DX001 (ip), vehicle: other): 115 % of control
- T/C (dose: 9.0 mg/kg/injection, schedule: Q01DX001 (iv), vehicle: other): 106 % of control
- T/C (dose: 9.0 mg/kg/injection, schedule: Q01DX005 (iv), vehicle: other): 118 % of control
- T/C (dose: 9.0 mg/kg/injection, schedule: Q01DX009 (oral), vehicle: other): 97 % of control
- T/C (dose: 10.0 mg/kg/injection, schedule: Q01DX009 (ip), vehicle: Klucel (hydroxypropylcellulose) (HPC)): 100 % of control and 106 % of control
- T/C (dose: 10.0 mg/kg/injection, schedule: Q01DX009 (oral), vehicle: Klucel (hydroxypropylcellulose) (HPC)): 99 % of control
- T/C (dose: 10.0 mg/kg/injection, schedule: Q01DX009 (sc), vehicle: Klucel (hydroxypropylcellulose) (HPC)): 96 % of control
- T/C (dose: 12.5 mg/kg/injection, schedule: Q04DX003 (ip), vehicle: Klucel (hydroxypropylcellulose) (HPC)): 150 % of control and 160 % of control
- T/C (dose: 16.7 mg/kg/injection, schedule: Q01DX005 (ip), vehicle: Klucel (hydroxypropylcellulose) (HPC)): 96 % of control
- T/C (dose: 20.0 mg/kg/injection, schedule: Q01DX009 (ip), vehicle: Klucel (hydroxypropylcellulose) (HPC)): 88 % of control
- T/C (dose: 20.0 mg/kg/injection, schedule: Q01DX009 (oral), vehicle: Klucel (hydroxypropylcellulose) (HPC)): 98 % of control
- T/C (dose: 20.0 mg/kg/injection, schedule: Q01DX009 (sc), vehicle: Klucel (hydroxypropylcellulose) (HPC)): 97 % of control
- T/C (dose: 21.6 mg/kg/injection, schedule: Q04DX003 (ip), vehicle: Klucel (hydroxypropylcellulose) (HPC)): 157 % of control
- T/C (dose: 25.0 mg/kg/injection, schedule: Q04DX003 (ip), vehicle: Klucel (hydroxypropylcellulose) (HPC)): 151 % of control and 155 % of control
- T/C (dose: 40.0 mg/kg/injection, schedule: Q01DX009 (oral), vehicle: Klucel (hydroxypropylcellulose) (HPC)): 104 % of control
- T/C (dose: 50.0 mg/kg/injection, schedule: Q04DX003 (ip), vehicle: Klucel (hydroxypropylcellulose) (HPC)): 124 % of control
- T/C (dose: 60.0 mg/kg/injection, schedule: Q04DX003 (ip), vehicle: Klucel (hydroxypropylcellulose) (HPC)): 107 % of control
- T/C (dose: 80.0 mg/kg/injection, schedule: Q01DX009 (oral), vehicle: Klucel (hydroxypropylcellulose) (HPC)): 98 % of control
- T/C (dose: 160.0 mg/kg/injection, schedule: Q01DX009 (oral), vehicle: Klucel (hydroxypropylcellulose) (HPC)): 99 % of control
